These results are taken from publication PMC11833248, “Evolutionary and Functional Analysis of Monoamine Oxidase F: A Novel Member of the Monoamine Oxidase Gene Family” (Genome Biology and Evolution, 2025).

Molecules are shown by their SMILES.

The first experiment concerns T1, IPT-MAO A/B.
T1 construct: full length 522 residues (borders given for the mammalian construct); N-terminal 6xHis; Pichia pastoris KM71; detergent-solubilized, FOS-choline-12
Briefly: HRP-coupled spectrophotometric assay of H2O2, […] nm. Format: biochemical, Megalops cyprinoides. As to conditions: 25 °C, 50 mM Hepes/NaOH pH 7.5, 0.5% v/v reduced Triton X-100; read-out: IPT-MAO A/B / K M / Human MAOB.
In the case of `NCCC(=O)c1ccccc1N` [Kynuramine], the Km turned out to be 30 ± 4 µM.
On the same count and under the same terms, the value for `NCc1ccccc1` [Benzylamine] was 50 ± 10 µM; that for `NCCc1ccc(O)cc1` [Tyramine] was 200 ± 40 µM; that for `NCCc1ccccc1` [Phenethylamine] was 70 ± 10 µM.

The subject of a further experiment is IPT-MAO A/B.
Assay: not given
Conditions: read-out: IPT-MAO A/B / K M / Human MAOB; 25 °C, 50 mM Hepes/NaOH pH 7.5, 0.5% v/v reduced Triton X-100.
On to `NCCc1c[nH]c2ccc(O)cc12` [Serotonin], for which the Km was 100 ± 10 µM.
The same measure, in the same setting: next, `NCCc1ccc(O)c(O)c1` [Dopamine]: 300 ± 30 µM.
